Data on 5 compounds can be found in PMC12432127, “Assessing the potential of bacterial signal peptides for radiopharmaceutical applications” (Scientific Reports, 2025).

The target in one data set is T1, FPR1 (Homo sapiens, UniProt P21462).
T1 construct: expressed in transfected cells; host or cells: HEK293T (transient, jetPEI)
T1 sequence (P21462 1-350): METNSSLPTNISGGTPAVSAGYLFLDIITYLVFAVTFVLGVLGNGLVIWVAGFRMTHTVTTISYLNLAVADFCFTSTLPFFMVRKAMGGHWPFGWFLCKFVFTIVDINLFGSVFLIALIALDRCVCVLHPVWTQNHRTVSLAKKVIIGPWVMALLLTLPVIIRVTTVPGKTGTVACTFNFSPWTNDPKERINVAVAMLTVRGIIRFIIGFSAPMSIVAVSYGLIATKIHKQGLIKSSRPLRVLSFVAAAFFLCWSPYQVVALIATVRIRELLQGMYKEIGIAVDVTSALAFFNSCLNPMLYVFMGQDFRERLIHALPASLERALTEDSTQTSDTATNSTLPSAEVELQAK
The experiment in a line: High-throughput calcium imaging (FLIPR), FPR1 transfected HEK293T cells. The format is cell-based. Conditions: for Calicum signal (dF/F0): FPR1-HEK; for EC50: FPR1 transfected HEK293T cells, peak calcium response, read-out: EC50 Ca2+ mobilization. The procedure: Cell transfection was performed approximately 24 h after seeding the cells, when they reached about 70% confluence. Transfection was carried out using jetPEI™ (Polyplus) according to the following protocol: 0.25 µg DNA was diluted in 10 µL NaCl (150 mM). 0.5 µL of jetPEI™ solution in 10 µL NaCl was mixed with the DNA solution and incubated at RT for 15–30 min. After incubation, 20 µL of the jetPEI™/DNA mixture was added dropwise to the cells, which were then placed in the cell culture incubator at 37 °C and 5% CO2. After 18 to 24 h of transfection, the medium was replaced, and 100 µL per well was added, then placed back in the incubator.
(§1) Automated high-throughput Ca^2+ measurements using a fluorescence imaging plate reader (FLIPR, Molecular Devices) were performed. Briefly, […] were seeded in 96-well plates (~ 50,000 cells/well) one day before the experiments and incubated at 37 °C. HEK293T cells were co-transfected with the receptor or mock and the G protein Gα16 for 48 h. On the day of the experiments, the medium was removed, and the cells were loaded with a loading solution consisting of 2 µM Calbryte dye in C1 buffer (Calbryte 520AM, AAT Bioquest 20651) 50 µL per well, for at least 2 h at RT in the dark. After 2 h of loading with the fluorescent dye, the solution was removed, the plate was washed three times using an ELX50 washer (BioTek), and the intracellular release of calcium was measured using FLIPR. A Ca^2+ response was defined as an increase in the excitation ratio (340 nm/380 nm) that was at least four times higher than the mean baseline noise after bath application.
(§2) The results are expressed as the means ± standard deviations of the number of the indicated determinations. Calcium measurement experiments were routinely performed as triplicates and averaged over at least three independent transfections. Response amplitudes (F/F0) were calculated by dividing maximal fluorescence change after ligand application by baseline fluorescence. Maximal amplitudes were set to 100%, and curves were calculated with Graph Pad Prism Version 10.1 (GraphPad Software, Boston, MA, USA). S.D. values were calculated as averages from independently obtained EC50 values using the STDEV. Data derived from experiments were analyzed by two-way ANOVA. P < 0.05 was accepted as significant.

The test system of another data set is U87-MG cells. As to the kind of experiment: Calcium imaging (FLIPR) in U87-MG cells. The format is cell-based, human. Conditions: for EC50: U87-MG cells, read-out: EC50 Ca2+ flux; for Calicum signal (dF/F0): U87 cells. As for the experimental part: as §1, §2
Data set [1] in a line: Stability in human plasma (radio-HPLC). Conditions: human plasma, 37 °C. The format is in vitro ADME. As for the experimental part:
The radiolabelled compound (50 µL) was added to male human AB plasma (500 µL, Sigma Aldrich, USA, male AB) and incubated at 37 °C. Samples of 100 µL were taken at selected time points. The plasma proteins were precipitated with acetonitrile (-20 °C) and the precipitate was centrifuged for 1 min at 1500 rpm. The supernatant was analyzed by analytical radio-HPLC.

Setting [2] is: Log Concentration (M) -6,5, single replicate values, listed as f-MVPIK(Ahx-DOTA-Lu)I.
Where [3] appears, read: Log Concentration (M) -6, single replicate values, listed as f-MVPIK(Ahx-DOTA-Lu)I.
Where [4] appears, read: Log Concentration (M) -7,5, single replicate values, listed as f-MVPIK(Ahx-DOTA-Lu)I.
[5] abbreviates: Log Concentration (M) -7, single replicate values, listed as f-MVPIK(Ahx-DOTA-Lu)I.
Setting [6] is: Log Concentration (M) -8,5, single replicate values, listed as f-MVPIK(Ahx-DOTA-Lu)I.
Setting [7] is: Log Concentration (M) -8, single replicate values, listed as f-MVPIK(Ahx-DOTA-Lu)I.
Where [8] appears, read: Log Concentration (M) -9, single replicate values, listed as f-MVPIK(Ahx-DOTA-Lu)I.
Setting [9] is: Log Concentration (M) -6,5, single replicate values, listed as f-MVPIK(Ahx-DOTA-Ga)I.
Setting [10] is: Log Concentration (M) -6, single replicate values, listed as f-MVPIK(Ahx-DOTA-Ga)I.
Where [11] appears, read: Log Concentration (M) -7,5, single replicate values, listed as f-MVPIK(Ahx-DOTA-Ga)I.
Where [12] appears, read: Log Concentration (M) -7, single replicate values, listed as f-MVPIK(Ahx-DOTA-Ga)I.
Setting [13] is: Log Concentration (M) -8,5, single replicate values, listed as f-MVPIK(Ahx-DOTA-Ga)I.
[14] abbreviates: Log Concentration (M) -8, single replicate values, listed as f-MVPIK(Ahx-DOTA-Ga)I.
[15] abbreviates: Log Concentration (M) -9, single replicate values, listed as f-MVPIK(Ahx-DOTA-Ga)I.

Values joined by “and” are separate entries in the source; they are usually repeats but may differ in a detail not shown here. Equal values may be shown once. Residues, ends and D or L forms follow the SMILES beside them. Groups on a side chain read outwards from the residue. *: point of attachment. DOTA = O=C(O)CN1CCN(CC(=O)O)CCN(CC(=O)*)CCN(CC(=O)O)CC1; Ahx = NCCCCCC(=O)O; For = O=C*

Take `CC[C@H](C)[C@H](NC(=O)[C@H](CCCCNC(=O)CCCCCNC(=O)CN1CCN(CC(=O)O)CCN(CC(=O)O)CCN(CC(=O)O)CC1)NC(=O)[C@@H](NC(=O)[C@@H]1CCCN1C(=O)[C@@H](NC(=O)[C@H](CCSC)NC=O)C(C)C)[C@@H](C)CC)C(=O)O` [^natLu-f-MVPIK(Ahx-DOTA)I, metal not drawn] (For-MVPIK([Ahx-DOTA])I-OH): the “Calicum signal (dF/F0)” value at FPR1 (setting [2]) is 0,91 and 0,74 and 0,82; at FPR1 (setting [3]), 0,93 and 0,87 and 0,9; on FPR1 (setting [4]), 0,7 and 0,5 and 0,6; at FPR1 (setting [5]), 0,89 and 0,6 and 0,71; at FPR1 (setting [6]), 0,31 and 0,28 and 0,34; at FPR1 (setting [7]) it was 0,58 and 0,41 and 0,43. Further, the “Calicum signal (dF/F0)” value is 0,13 and 0,23 and 0,2 on FPR1 (setting [8]); 1,2 and 1,34 and 1 and 1,14 and 0,83 in the data set on U87-MG cells (setting [2]); 1,39 and 1,4 and 1,3 and 1,55 and 1,9 with U87-MG cells (setting [3]); 0,86 and 0,93 and 0,8 and 0,82 and 0,85 in the data set on U87-MG cells (setting [4]); 0,98 (2×) and 0,94 and 1,8 and 0,96 in the data set on U87-MG cells (setting [5]); 0,62 (3×) and 0,55 and 0,58 with U87-MG cells (setting [6]). In addition, the “Calicum signal (dF/F0)” value is 0,71 and 0,66 and 0,58 and 0,5 and 0,63 with U87-MG cells (setting [7]); 0,06 (2×) and 0,07 and 0,09 and 0,01 in the data set on U87-MG cells (Log Concentration (M) -9,5, single replicate values, listed as f-MVPIK(Ahx-DOTA-Lu)I); 0,12 (2×) and 0,21 and 0,14 and 0,18 with U87-MG cells (setting [8]). In addition, the 50% effective concentration (EC50) was found to be 12 ± 1 nM on FPR1 and 10 ± 0.9 nM with U87-MG cells.
`CC[C@H](C)[C@H](NC(=O)[C@H](CCCCNC(=O)CCCCCNC(=O)CN1CCN(CC(=O)O)CCN(CC(=O)O)CCN(CC(=O)O)CC1)NC(=O)[C@@H](NC(=O)[C@@H]1CCCN1C(=O)[C@@H](NC(=O)[C@H](CCSC)NC=O)C(C)C)[C@@H](C)CC)C(=O)O` [[^68Ga]Ga-f-MVPIK(Ahx-DOTA)I, metal not drawn] (For-MVPIK([Ahx-DOTA])I-OH): the “time stable in human plasma” value in data set [1] is recorded as “at least 4 h”.
Regarding `CC[C@H](C)[C@H](NC(=O)[C@H](CCCCNC(=O)CCCCCNC(=O)CN1CCN(CC(=O)O)CCN(CC(=O)O)CCN(CC(=O)O)CC1)NC(=O)[C@@H](NC(=O)[C@@H]1CCCN1C(=O)[C@@H](NC(=O)[C@H](CCSC)NC=O)C(C)C)[C@@H](C)CC)C(=O)O` [^natGa-f-MVPIK(Ahx-DOTA)I, metal not drawn] (For-MVPIK([Ahx-DOTA])I-OH), the “Calicum signal (dF/F0)” value at FPR1 (setting [9]) was 0,85 and 0,8 and 0,68; at FPR1 (setting [10]), 0,85 and 0,89 and 0,8; at FPR1 (setting [11]) it was 0,66 and 0,52 and 0,6; at FPR1 (setting [12]), 0,74 and 0,87 and 0,65; at FPR1 (setting [13]), 0,12 and 0,27 and 0,23; at FPR1 (setting [14]), 0,28 and 0,27 and 0,3. The “Calicum signal (dF/F0)” value at FPR1 (setting [15]) is 0,14 and 0,13 and 0,12; in the data set with U87-MG cells (setting [9]), 1,2 and 1,8 and 0,91 and 1,18 and 1,37; in the data set on U87-MG cells (setting [10]) it was 1,22 and 1,2 (2×) and 0,96 and 1,41; in the data set on U87-MG cells (setting [11]), 0,77 and 0,6 (2×) and 0,61 and 0,7; with U87-MG cells (setting [12]), 0,98 and 0,86 and 0,8 and 1,02 and 0,95; in the data set on U87-MG cells (setting [13]), 0,4 and 0,38 and 0,33 and 0,46 and 0,35. Further, the “Calicum signal (dF/F0)” value in the data set with U87-MG cells (setting [14]) is 0,45 and 0,46 (2×) and 0,65 and 0,58; in the data set on U87-MG cells (Log Concentration (M) -9,5, single replicate values, listed as f-MVPIK(Ahx-DOTA-Ga)I), 0,04 and 0,02 (3×) and 0,01; in the data set with U87-MG cells (setting [15]), 0,11 (2×) and 0,17 and 0,14 and 0,13. Also, the concentration for a half-maximal effect (EC50) amounted to 20 ± 1 nM at FPR1 and 29 ± 2.1 nM in the data set on U87-MG cells.
On to f-MLFKYS, for which, on FPR1 (FPR1 vs FPR2), the “sensitivity to FPR1 compared with FPR2 (calcium)” value was “very similar sensitivity to FPR1 and FPR2”.
As for `CC[C@H](C)[C@H](NC(=O)[C@H](CCCCNC(=O)CCCCCNC(=O)CN1CCN(CC(=O)O)CCN(CC(=O)O)CCN(CC(=O)O)CC1)NC(=O)[C@@H](NC(=O)[C@@H]1CCCN1C(=O)[C@@H](NC(=O)[C@H](CCSC)NC=O)C(C)C)[C@@H](C)CC)C(=O)O` [f-MVPIK(Ahx-DOTA)I] (For-MVPIK([Ahx-DOTA])I-OH), the EC50 is 23 ± 2 nM on FPR1 and 5.6 ± 0.9 nM in the data set with U87-MG cells.
